Our source for the EC50 and Emax values is patent US20240208992A1, “MACROCYCLES AS CFTR MODULATORS” (Idorsia Pharmaceuticals Ltd, priority 2021, published 2024).

This assay concerns the target human F508del-CFTR (Homo sapiens, UniProt P13569, DEL508-508). The assay is described as follows: F508del-CFTR cell surface expression (corrector activity), DiscoveRx ß-galactosidase complementation chemiluminescence assay in recombinant U2OS cell line.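 For all read-outs here: U2OS cells co-expressing ProLink-tagged F508del-CFTR and a membrane-anchored enzyme acceptor, where more surface CFTR restores β-galactosidase activity measured by chemiluminescence.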 As to conditions: for EC50: EC50, F508del-CFTR cell surface expression, U2OS cells, 16h compound incubation, geomean values; for Emax: U2OS, in relation to Emax of corrector lumacaftor (=100%), arithmetic mean values.

Sequence of human F508del-CFTR (P13569 with tags, fused parts or gaps DEL508-508): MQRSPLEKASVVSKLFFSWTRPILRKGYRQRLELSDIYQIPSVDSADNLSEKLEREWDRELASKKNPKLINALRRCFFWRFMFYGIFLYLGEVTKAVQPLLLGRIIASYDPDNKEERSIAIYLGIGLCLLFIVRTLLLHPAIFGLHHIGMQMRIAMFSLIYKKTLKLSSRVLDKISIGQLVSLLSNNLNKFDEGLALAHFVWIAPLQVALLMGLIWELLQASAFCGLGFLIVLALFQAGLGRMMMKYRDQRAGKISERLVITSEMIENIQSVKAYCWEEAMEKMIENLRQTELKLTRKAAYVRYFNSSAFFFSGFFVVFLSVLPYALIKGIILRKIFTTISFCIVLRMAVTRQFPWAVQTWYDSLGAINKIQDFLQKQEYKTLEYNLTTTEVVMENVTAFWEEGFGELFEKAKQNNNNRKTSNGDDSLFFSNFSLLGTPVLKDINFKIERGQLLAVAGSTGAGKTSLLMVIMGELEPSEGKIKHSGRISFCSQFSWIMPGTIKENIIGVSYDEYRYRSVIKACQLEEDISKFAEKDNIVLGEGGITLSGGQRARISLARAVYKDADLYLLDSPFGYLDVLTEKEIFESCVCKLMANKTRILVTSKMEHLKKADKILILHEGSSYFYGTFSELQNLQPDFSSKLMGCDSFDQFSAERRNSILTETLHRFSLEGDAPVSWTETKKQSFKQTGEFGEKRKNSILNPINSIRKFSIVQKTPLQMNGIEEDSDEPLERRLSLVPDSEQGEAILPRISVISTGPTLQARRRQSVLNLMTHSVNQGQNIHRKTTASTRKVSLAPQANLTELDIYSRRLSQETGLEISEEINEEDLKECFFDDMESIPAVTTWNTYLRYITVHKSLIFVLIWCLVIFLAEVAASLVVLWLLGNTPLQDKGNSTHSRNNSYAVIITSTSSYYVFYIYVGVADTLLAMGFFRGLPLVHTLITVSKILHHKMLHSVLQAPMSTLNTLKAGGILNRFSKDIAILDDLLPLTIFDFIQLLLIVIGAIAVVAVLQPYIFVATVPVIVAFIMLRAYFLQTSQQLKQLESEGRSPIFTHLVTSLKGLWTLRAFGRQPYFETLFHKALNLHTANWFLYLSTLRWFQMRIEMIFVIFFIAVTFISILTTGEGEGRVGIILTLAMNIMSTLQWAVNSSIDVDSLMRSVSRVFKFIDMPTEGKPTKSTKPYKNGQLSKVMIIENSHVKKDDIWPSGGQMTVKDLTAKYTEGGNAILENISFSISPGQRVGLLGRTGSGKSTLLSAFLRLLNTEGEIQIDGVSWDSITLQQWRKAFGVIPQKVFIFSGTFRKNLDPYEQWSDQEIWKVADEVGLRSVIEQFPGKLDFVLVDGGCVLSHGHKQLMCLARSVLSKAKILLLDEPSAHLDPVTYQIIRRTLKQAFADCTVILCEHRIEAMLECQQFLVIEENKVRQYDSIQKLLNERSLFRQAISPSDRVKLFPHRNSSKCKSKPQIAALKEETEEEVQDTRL

Consider `CC(C)C[C@H]1C(=O)N2CCOC[C@@H]2C(=O)N[C@H](Cc2ccccc2)COc2cnc3ccc(F)cc3c2C(=O)N[C@H](C(=O)NCCc2noc(C3CC3)n2)CC(=O)N1C` [Example 489, (9S,13S,19aR,22R)-22-benzyl-N-(2-(5-cyclopropyl-1,2,4-oxadiazol-3-yl)ethyl)-5-fluoro-13-isobutyl-12-methyl-7,11,14,20-tetraoxo-7,8,9,10,11,12,13,14,16,17,19,19a,20,21,22,23-hexadecahydro-[1,4]oxazino[3′,4′:6,7][1]oxa[4,7,10,14]tetraazacycloheptadecino[17,16-c]quinoline-9-carboxamide], for which the EC50 was 625 nM and the Emax came to 273%.

For `CC(C)C[C@H]1C(=O)N2CCCC[C@@H]2C(=O)N[C@H](Cc2ccccc2)COc2ccc3c(cnn3C)c2C(=O)N[C@H](C(=O)NCCc2c(F)cccc2F)CC(=O)N1C` [Example 490, (8S,12S,18aR,21R)-21-benzyl-N-(2,6-difluorophenethyl)-12-isobutyl-3,11-dimethyl-6,10,13,19-tetraoxo-6,7,8,9,10,11,12,13,16,17,18,18a,19,20,21,22-hexadecahydro-3H,15H-pyrido[2′,1′:6,7][1]oxa[4,7,10,14]tetraazacycloheptadecino[16,17-e]indazole-8-carboxamide], the EC50 worked out at 222 nM and the Emax was determined as 181%.

On to `CC(C)C[C@H]1C(=O)N2CCCC[C@@H]2C(=O)N[C@H](Cc2ccccc2)COc2ccc3c(c2C(=O)N[C@H](C(=O)NCCc2c(F)cccc2F)CC(=O)N1C)OCC3` [Example 491, (8S,12S,18aR,21R)-21-benzyl-N-(2,6-difluorophenethyl)-12-isobutyl-11-methyl-6,10,13,19-tetraoxo-3,4,6,7,8,9,10,11,12,13,16,17,18,18a,19,20,21,22-octadecahydro-15H-benzofuro[7,6-p]pyrido[2,1-f][1]oxa[4,7,10,14]tetraazacycloheptadecine-8-carboxamide], for which the EC50 came to 209 nM and the Emax was 178%.

As to `CO[C@H]1C[C@]2(C1)C(=O)N[C@H](Cc1ccccc1)COc1ccc3ccccc3c1C(=O)N[C@H](C(=O)NCCc1ccc(-n3nccn3)cc1)CC(=O)N(C)[C@@H](CC(C)C)C(=O)N2C` [Example 492, (1r,3S,3′S,7′S,13′R)-N-(4-(2H-1,2,3-triazol-2-yl)phenethyl)-13′-benzyl-7′-isobutyl-3-methoxy-6′,9′-dimethyl-1′,5′,8′,11′-tetraoxo-2′,3′,4′,5′,6′,7′,8′,9′,11′,12′,13′,14′-dodecahydro-1′H-spiro[cyclobutane-1,10′-naphtho[1,2-p][1]oxa[4,7,10,14]tetraazacycloheptadecine]-3′-carboxamide], the EC50 is 305 nM and the Emax was 168%.

Turning to `CO[C@H]1C[C@]2(C1)C(=O)N[C@H](Cc1ccccc1)COc1cnc3ccccc3c1C(=O)N[C@H](C(=O)NCCc1ccc(-n3nccn3)cc1)CC(=O)N(C)[C@@H](CC(C)C)C(=O)N2C` [Example 493, (1r,3S,3′S,7′S,13′R)-N-(4-(2H-1,2,3-triazol-2-yl)phenethyl)-13′-benzyl-7′-isobutyl-3-methoxy-6′,9′-dimethyl-1′,5′,8′,11′-tetraoxo-2′,3′,4′,5′,6′,7′,8′,9′,11′,12′,13′,14′-dodecahydro-1′H-spiro[cyclobutane-1,10′-[1]oxa[4,7,10,14]tetraazacycloheptadecino[17,16-c]quinoline]-3′-carboxamide], the EC50 came to 687 nM and the Emax is 253%.

As to `COc1cccc(CCNC(=O)[C@@H]2CC(=O)N(C)[C@@H](CC(C)C)C(=O)N(C)C3(CC3)C(=O)N[C@H](Cc3ccccc3)COc3ccc4cnccc4c3C(=O)N2)c1` [Example 494, (3′S,7′S,13′R)-13′-benzyl-7′-isobutyl-N-(3-methoxyphenethyl)-6′,9′-dimethyl-1′,5′,8′,11′-tetraoxo-2′,3′,4′,5′,6′,7′,8′,9′,11′,12′,13′,14′-dodecahydro-1′H-spiro[cyclopropane-1,10′-[1]oxa[4,7,10,14]tetraazacycloheptadecino[16,17-f]isoquinoline]-3′-carboxamide], the EC50 was found to be 260 nM and the Emax stood at 295%.

Regarding `Cc1cc(CCNC(=O)[C@@H]2CC(=O)N(C)[C@@H](CC(C)C)C(=O)N(C)C3(Cc4ccccc4C3)C(=O)N[C@H](Cc3ccccc3)COc3cnc4ccccc4c3C(=O)N2)on1` [Example 495, (3′S,7′S,13′R)-13′-benzyl-7′-isobutyl-6′,9′-dimethyl-N-(2-(3-methylisoxazol-5-yl)ethyl)-1′,5′,8′,11′-tetraoxo-1,2′,3,3′,4′,5′,6′,7′,8′,9′,11′,12′,13′,14′-tetradecahydro-1′H-spiro[indene-2,10′-[1]oxa[4,7,10,14]tetraazacycloheptadecino[17,16-c]quinoline]-3′-carboxamide], the EC50 amounted to 296 nM and the Emax is 207%.

In the case of `CC(C)C[C@H]1C(=O)N(C)C2(CC2)C(=O)N[C@H](Cc2ccccc2)COc2cnc3ccccc3c2C(=O)N[C@H](C(=O)NCCc2ccc(-c3ncccn3)cc2)CC(=O)N1C` [Example 496, (3′S,7′S,13′R)-13′-benzyl-7′-isobutyl-6′,9′-dimethyl-1′,5′,8′,11′-tetraoxo-N-(4-(pyrimidin-2-yl)phenethyl)-2′,3′,4′,5′,6′,7′,8′,9′,11′,12′,13′,14′-dodecahydro-1′H-spiro[cyclopropane-1,10′-[1]oxa[4,7,10,14]tetraazacycloheptadecino[17,16-c]quinoline]-3′-carboxamide], the EC50 worked out at 523 nM and the Emax turned out to be 317%.

Take `CC(C)C[C@H]1C(=O)N2CCCC[C@H]2C(=O)N[C@H](Cc2ccccc2)COc2cnc3c(F)cccc3c2C(=O)N[C@H](C(=O)NCCc2cc(C3CC3)on2)CC(=O)N1C` [Example 497, (9S,13S,19aS,22R)-22-benzyl-N-(2-(5-cyclopropylisoxazol-3-yl)ethyl)-3-fluoro-13-isobutyl-12-methyl-7,11,14,20-tetraoxo-7,8,9,10,11,12,13,14,17,18,19,19a,20,21,22,23-hexadecahydro-16H-pyrido[2′,1′:6,7][1]oxa[4,7,10,14]tetraazacycloheptadecino[17,16-c]quinoline-9-carboxamide]: the EC50 worked out at 535 nM and the Emax came to 171%.

For `CC(C)C[C@H]1C(=O)N2CCCC[C@@H]2C(=O)N[C@H](Cc2ccccc2)COc2cnc3c(F)cccc3c2C(=O)N[C@H](C(=O)NCCc2noc(C3CC3)n2)CC(=O)N1C` [Example 498, (9S,13S,19aR,22R)-22-benzyl-N-(2-(5-cyclopropyl-1,2,4-oxadiazol-3-yl)ethyl)-3-fluoro-13-isobutyl-12-methyl-7,11,14,20-tetraoxo-7,8,9,10,11,12,13,14,17,18,19,19a,20,21,22,23-hexadecahydro-16H-pyrido[2′,11:6,7][1]oxa[4,7,10,14]tetraazacycloheptadecino[17,16-c]quinoline-9-carboxamide], the EC50 is 198 nM and the Emax is 313%.

As to `CC(C)C[C@H]1C(=O)N2CCCC[C@@H]2C(=O)N[C@H](Cc2ccccc2)COc2cnc3c(F)cccc3c2C(=O)N[C@H](C(=O)NCCc2cc(C3CC3)no2)CC(=O)N1C` [Example 499, (9S,13S,19aR,22R)-22-benzyl-N-(2-(3-cyclopropylisoxazol-5-yl)ethyl)-3-fluoro-13-isobutyl-12-methyl-7,11,14,20-tetraoxo-7,8,9,10,11,12,13,14,17,18,19,19a,20,21,22,23-hexadecahydro-16H-pyrido[2′,11:6,7][1]oxa[4,7,10,14]tetraazacycloheptadecino[17,16-c]quinoline-9-carboxamide], the 50% effective concentration (EC50) came to 189 nM and the Emax came out at 321%.

For `CC(C)C[C@H]1C(=O)N2CCCC[C@H]2C(=O)N[C@H](Cc2ccccc2)COc2cnc3c(F)cccc3c2C(=O)N[C@H](C(=O)NCCc2cc(C3CC3)no2)CC(=O)N1C` [Example 500, (9S,13S,19aS,22R)-22-benzyl-N-(2-(3-cyclopropylisoxazol-5-yl)ethyl)-3-fluoro-13-isobutyl-12-methyl-7,11,14,20-tetraoxo-7,8,9,10,11,12,13,14,17,18,19,19a,20,21,22,23-hexadecahydro-16H-pyrido[2′,1′:6,7][1]oxa[4,7,10,14]tetraazacycloheptadecino[17,16-c]quinoline-9-carboxamide], the EC50 worked out at 553 nM and the Emax was 199%.

Take `CC(C)C[C@H]1C(=O)N2CCCC[C@@H]2C(=O)N[C@H](Cc2ccccc2)COc2cnc3c(F)cccc3c2C(=O)N[C@H](C(=O)NCCc2nc(C3CC3)no2)CC(=O)N1C` [Example 501, (9S,13S,19aR,22R)-22-benzyl-N-(2-(3-cyclopropyl-1,2,4-oxadiazol-5-yl)ethyl)-3-fluoro-13-isobutyl-12-methyl-7,11,14,20-tetraoxo-7,8,9,10,11,12,13,14,17,18,19,19a,20,21,22,23-hexadecahydro-16H-pyrido[2′,11:6,7][1]oxa[4,7,10,14]tetraazacycloheptadecino[17,16-c]quinoline-9-carboxamide]: the EC50 amounted to 198 nM and the Emax was 308%.

As to `CC(C)C[C@H]1C(=O)N(C)C2(CC2)C(=O)N[C@H](Cc2ccccc2)COc2cnc3ccccc3c2C(=O)N[C@H](C(=O)NCCc2cccc(-c3ncccn3)c2)CC(=O)N1C` [Example 502, (3′S,7′S,13′R)-13′-benzyl-7′-isobutyl-6′,9′-dimethyl-1′,5′,8′,11′-tetraoxo-N-(3-(pyrimidin-2-yl)phenethyl)-2′,3′,4′,5′,6′,7′,8′,9′,11′,12′,13′,14′-dodecahydro-1′H-spiro[cyclopropane-1,10′-[1]oxa[4,7,10,14]tetraazacycloheptadecino[17,16-c]quinoline]-3′-carboxamide], the EC50 came to 752 nM and the Emax amounted to 295%.
